Source: publication PMC12873548, “D-amino acid substitution and cyclization enhance the stability and antimicrobial activity of arginine-rich peptides” (Microbiology, 2026)
Converted amounts (≈) assume the structure as drawn. Residues, ends and D or L forms follow the SMILES beside them.

Assays:
[1] = system: S. aureus (12600); format: cell-based, Staphylococcus aureus
Protocol: (§1) The MIC of arginine-based peptides was assessed using the microbroth dilution approach. Our in vitro screening included a panel of Gram-negative bacteria, Escherichia coli (ATCC 25922 and enterohaemorrhagic O157:H7) and Pseudomonas aeruginosa (PA01 and the drug-resistant strain NCTC 13437), and Gram-positive bacteria (Staphylococcus aureus ATCC 12600). Five-millilitre overnight cultures in Lysogeny broth, prepared from single isolated colonies, were diluted to 5×10^6 c.f.u. ml^−1 mid-log phase in Mueller–Hinton (MH) broth. Next, peptide concentrations (0 to 1 mM) were serially diluted twofold in 96-well plates and incubated overnight at 37 °C with the tested bacterial strains. In each case, the MIC was determined as the lowest peptide concentration at which no detectable bacterial growth was observed, employing an absorbance-based assay using a Tecan Spark® multimode plate reader. Subsequently, 10 µl aliquots from each peptide dilution were transferred to MH agar (1.5%) plates to determine the minimum bactericidal concentration (MBC) which was assessed by establishing at which concentration no visible growth of bacteria (assessed via colony formation) on the plate was observed.
(§2) The antimicrobial activity and structural stability of arginine-rich peptides were evaluated in the presence of human serum (20% and 50 %) and 5 µM Sequencing Grade Modified Trypsin (SGMT, Promega). Briefly, fresh human blood was collected in EDTA tubes and allowed to clot at room temperature for 1 h. Serum was then collected following centrifugation at 2,000 r.p.m. for 10 min at 4 °C. Peptides were incubated with 20%, 50% human serum and 5 µM SGMT in 50 mM Tris-HCl buffer (1 mM CaCl₂, pH 7.6) for 24 h at 37 °C. After the incubation period, the solutions were further incubated with E. coli (ATCC 25922 and O157:H7), P. aeruginosa (PA01, NCTC13437) and S. aureus (ATCC12600), and the MIC was assessed as described in the ‘Antibacterial assessment’ section. Additionally, the samples were analysed using electrospray ionization MS to monitor structural changes based on the molecular weight of the peptides.

[2] = system: E. coli; assay: Live/dead SYTO 9/PI fluorescence imaging; format: cell-based, Escherichia coli; details: mid-log phase E. coli, 2× MIC; red = damaged membranes
[3] = system: P. aeruginosa (PA01); format: cell-based, Pseudomonas aeruginosa
Protocol: as §1, §2

[4] = system: E. coli (25922); format: cell-based, Escherichia coli
Protocol: as §1, §2

[5] = Stability in human serum by LC-MS; format: in vitro ADME; details: human serum (20% and 50%), 24 h, 37 °C; read-out LC-MS (ESI)
Protocol: as §2

[6] = target: T1, Sequencing Grade Modified Trypsin (Sus scrofa, UniProt P00761); assay: Stability with trypsin by LC-MS; format: in vitro ADME; details: 5 µM SGMT trypsin, 50 mM Tris-HCl, 1 mM CaCl2, pH 7.6, 24 h, 37 °C; read-out LC-MS (ESI)
T1 construct: purchased Promega
T1 sequence (P00761 9-231): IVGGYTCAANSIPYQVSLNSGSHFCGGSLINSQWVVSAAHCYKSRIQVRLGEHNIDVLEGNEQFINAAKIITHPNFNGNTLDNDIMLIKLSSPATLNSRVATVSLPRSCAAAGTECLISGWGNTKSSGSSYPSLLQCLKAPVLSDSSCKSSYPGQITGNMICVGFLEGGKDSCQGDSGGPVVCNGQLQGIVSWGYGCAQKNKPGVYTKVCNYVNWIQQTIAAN
Protocol: as §2

[7] = system: P. aeruginosa (PAO1) biofilms; assay: Disruption of pre-established biofilms, resazurin; format: cell-based, Pseudomonas aeruginosa; details: 48 h P. aeruginosa biofilm, peptide at 2× MIC, 18 h, 37 °C
Protocol: To establish mature P. aeruginosa (PAO1) biofilms, an overnight culture was diluted to an OD600 of 0.01 in 120 µl of M63 medium (supplemented with 1 mM MgSO₄ and 23 µM L-arginine) and incubated in flat-bottom 96-well plates at 37 °C for 48 h. Afterwards, individual wells containing biofilm were rinsed three times with PBS, and 150 µl MH broth was added with either 0.5× and 2× MIC peptides. 100 µg mL^−1 resazurin was added to measure the biofilm metabolic activity for 18 h at 37 °C using a Tecan Spark® microplate reader (λex=520 nm/λem=590 nm). c.f.u. counts were established by plating aliquots of a dilution series onto MH agar followed by overnight incubation at 37 °C. Residual biofilm biomass was subsequently quantified using 0.1% CV staining.
Three-dimensional images of biofilm communities, with and without peptide exposure, were captured using an All-in-One Fluorescence Microscope (Keyence, Japan). Pre-established biofilms in a 96-well plate were incubated with 2× MIC peptides for 3 h at 37 °C. Dual staining was performed with 5 µl of SYTO 9/PI for 30 min. Biofilm thickness was assessed through 2.0 µm optical cross-sections with 50 µm pinholes.

[8] = system: S. aureus (ATCC12600); format: cell-based, Staphylococcus aureus; details: S. aureus ATCC12600
Protocol: as §1

[9] = system: E. coli; assay: Intracellular ROS, DCFH-DA; format: cell-based, Escherichia coli; details: peptides at MIC, 1/2× MIC, 1/4× MIC, 4 h, 37 °C
Protocol: Total reactive oxygen species (ROS) was measured using an oxidation-sensitive fluorescent dye, 2′,7′-dichlorodihydrofluorescein diacetate (DCFH-DA). For this assay, E. coli and S. aureus cultures were adjusted to an OD600 of 0.3 in MH broth and exposed to peptides at MIC, 1/2× MIC and 1/4× MIC, or to positive control (5 mM H2O2) for 4 h at 37 °C. Cells were centrifuged at 4,000 r.p.m. for 10 min at 4 °C and resuspended in PBS containing 10 µM DCFH-DA. The suspension was incubated under the same conditions for 30 min. Finally, cells were washed twice with PBS, and 150 µl aliquots were transferred to 96-well plates. Oxidized DCF products were detected using a Tecan Spark® microplate reader with excitation at 485 nm and emission at 530 nm. Additionally, 10 µl of E. coli cells incubated with D-R4F4 at MIC, 1/2×MIC and 1/4×MIC was collected for imaging using an All-in-One Fluorescence Microscope (Keyence, Japan).

[10] = system: P. aeruginosa (PA01); format: cell-based, Pseudomonas aeruginosa; details: P. aeruginosa PA01
Protocol: as §1

[11] = system: P. aeruginosa (NCTC13437); format: cell-based, Pseudomonas aeruginosa; details: P. aeruginosa NCTC13437 (drug-resistant); 10 µl aliquots plated on MH agar, no visible colonies
Protocol: as §1

[12] = control without serum or trypsin
[13] = peptide incubated with 5 µM SGMT trypsin in 50 mM Tris-HCl, 1 mM CaCl2, pH 7.6, 24 h at 37 °C before MIC
[14] = peptide incubated with 20% human serum 24 h at 37 °C before MIC
[15] = peptide incubated with 50% human serum 24 h at 37 °C before MIC
[16] = 10 µl aliquots plated on MH agar, no visible colonies
[17] = MH broth, 5×10^6 cells, 24 h, 37 °C, absorbance 600 nm, triplicate

For `N=C(N)NCCC[C@@H]1NC(=O)[C@H](CCCNC(=N)N)NC(=O)[C@H](CCCNC(=N)N)NC(=O)[C@H](Cc2ccccc2)NC(=O)[C@H](Cc2ccccc2)NC(=O)[C@H](Cc2ccccc2)NC(=O)[C@H](Cc2ccccc2)NC(=O)[C@H](CCCNC(=N)N)NC1=O` [CP-R4F4] (cyclo(RRRRFFFF)), the “MIC, Control” value [1, 12] was 62.5 µM (≈ 75.8 µg/mL), the “MIC, Trypsin” value [1, 13] was 62.5 µM (≈ 75.8 µg/mL) and the “MIC, 20% human serum” value [1, 14] was 62.5 µM (≈ 75.8 µg/mL). For the same compound, the “MIC, 50% human serum” value [1, 15] was 250 µM (≈ 303 µg/mL), the “Membrane damage, live/dead SYTO 9/PI staining” value [2] was “high presence of red-stained cells indicative of damaged membranes” and the “MIC, Control” value [3, 12] was 31.25 µM (≈ 37.9 µg/mL). The “MIC, Trypsin” value [3, 13] was 31.25 µM (≈ 37.9 µg/mL), the “MIC, 20% human serum” value [3, 14] was 31.25 µM (≈ 37.9 µg/mL) and the “MIC, 50% human serum” value [3, 15] was 125 µM (≈ 152 µg/mL). For the same compound, the “MIC, Control” value [4, 12] was 31.25 µM (≈ 37.9 µg/mL), the “MIC, Trypsin” value [4, 13] was 31.25 µM (≈ 37.9 µg/mL) and the “MIC, 20% human serum” value [4, 14] was 31.25 µM (≈ 37.9 µg/mL). For the same compound, the “MIC, 50% human serum” value [4, 15] was 125 µM (≈ 152 µg/mL), the “Stability with serum proteases (LC chromatogram and mass spectrum)” value [5] was “appeared at the same retention time in both the absence and presence of proteases” and the “Stability with trypsin (LC chromatogram and mass spectrum)” value [6] was “appeared at the same retention time in both the absence and presence of proteases”. For the same compound, the “Disruption of mature biofilm (resazurin metabolic activity)” value [7] was “significantly disrupted”, the MBC [8, 16] was 125 µM (≈ 152 µg/mL) and the MIC [8, 17] was 62.5 µM (≈ 75.8 µg/mL). The “Intracellular ROS levels” value [9] was “highest modulation of ROS levels”, the MBC [10, 16] was 31.2 µM (≈ 37.9 µg/mL) and the MIC [10, 17] was 31.2 µM (≈ 37.9 µg/mL). For the same compound, the MBC [11] was 250 µM (≈ 303 µg/mL).
